This series can be described thus: Chemical and physical stability of the salts at the end of the preparation. It counts as physicochemical. From the text:
It is crucial for drug development whether the salts obtained as above have chemical and physical stability at the end of the preparation. The chemical and physical stability of the salts at the end of the preparation includes: […]

SMILES strings stand for the structures. Structures can show the parent of a compound that is named as a salt. Where two headings read alike, the source gives them in different places.

Consider `C=CC(=O)Nc1cc(Nc2ncnc(-c3cn(C)c4ccccc34)n2)c(OC)cc1N(C)CCN(C)C` [Example 12], for which the “chemical and physical stability at the end of the preparation” value (“chemical and physical stability” for short) is given as “chemically stable at the end of the preparation, but was physically unstable due to a certain hygroscopicity” (listed as amorphous sulfate salt) and “physically unstable” (listed as sulfate salt).

`C=CC(=O)Nc1cc(Nc2ncnc(-c3cn(C)c4ccccc34)n2)c(OC)cc1N(C)CCN(C)C` [sulfosalicylate salt]: the “chemical and physical stability” value was “chemically and physically stable”. Besides, the “chemical and physical stability” value (listed as amorphous sulfosalicylate salt) is “chemically and physically stable”.

As to `C=CC(=O)Nc1cc(Nc2ncnc(-c3cn(C)c4ccccc34)n2)c(OC)cc1N(C)CCN(C)C` [Example 16], the “chemical and physical stability” value is reported as “chemically unstable” (listed as L-malate salt) and “at least chemically unstable” (listed as amorphous L-malate salt).

In the case of `C=CC(=O)Nc1cc(Nc2ncnc(-c3cn(C)c4ccccc34)n2)c(OC)cc1N(C)CCN(C)C` [Example 18], the “chemical and physical stability” value was “chemically unstable” (listed as 1 eq. L-tartrate), “chemically unstable” (listed as amorphous 1 eq. L-tartrate) and “at least chemically unstable” (listed as amorphous 1 eq. L-tartrate salt).

For the compound `C=CC(=O)Nc1cc(Nc2ncnc(-c3cn(C)c4ccccc34)n2)c(OC)cc1N(C)CCN(C)C` [Example 17], the “chemical and physical stability” value is “chemically unstable” (listed as 1 eq. citrate salt) and “at least chemically unstable” (listed as amorphous 1 eq. citrate salt).

For the compound `C=CC(=O)Nc1cc(Nc2ncnc(-c3cn(C)c4ccccc34)n2)c(OC)cc1N(C)CCN(C)C` [Example 13], the “chemical and physical stability” value is, setting by setting: (listed as 2 eq. p-tosylate salt) “physically unstable”; (listed as amorphous 2 eq. p-tosylate salt) “chemically stable and reasonable in terms of the base:acid stoichiometric ratio at the end of the preparation, but was physically unstable due to caking and fusion to a glassy state upon short exposure to environmental conditions”.

Turning to `C=CC(=O)Nc1cc(Nc2ncnc(-c3cn(C)c4ccccc34)n2)c(OC)cc1N(C)CCN(C)C` [Example 14], the “chemical and physical stability” value (listed as Y11526-25-FD13-1,4-dioxane) was “chemically and physically stable”.

On to `C=CC(=O)Nc1cc(Nc2ncnc(-c3cn(C)c4ccccc34)n2)c(OC)cc1N(C)CCN(C)C` [Example 11], for which the “chemical and physical stability” value (listed as amorphous nitrate salt) is “at least chemically unstable”; the “chemical and physical stability” value (listed as nitrate salt) is “chemically unstable”.

With `C=CC(=O)Nc1cc(Nc2ncnc(-c3cn(C)c4ccccc34)n2)c(OC)cc1N(C)CCN(C)C` [Example 15], the “chemical and physical stability” value (listed as Y11526-25-FD12-1,4-dioxane) was “chemically and physically stable”.

Source of the values: patent US20230234941A1, “Salts of Compound and Pharmaceutical Compositions Containing the Same” (Shenzhen Forward Pharmaceuticals Co., Limited., priority 2020, published 2023).
